Like-named read-outs stand apart in the source and are kept apart here.

This note sets out measurements from US20090143279A1 (priority 2007, published 2009).

Test [1] concerns mitochondrial membrane potential. The format is cell-based, mouse. As to conditions: for ΔΨm (composite Z-score): normalized score vs mock-treated (DMSO) wells.
The test system of a further test is reactive oxygen species. The format is cell-based, mouse. As to conditions: for ROS (composite Z-score): normalized score vs mock-treated (DMSO) wells.
The next test deals with OXPHOS gene expression. In kind it is cell-based, mouse. To be noted: for GE-HTS (composite Z-score): normalized score vs mock-treated (DMSO) wells.
Another test deals with nuOXPHOS transcripts. The format is cell-based, mouse. To be noted: for nucOX (composite Z-score): normalized score vs mock-treated (DMSO) wells.
A further test concerns mtOXPHOS transcripts. The format is cell-based, mouse. As to conditions: for mitoOX (composite Z-score): normalized score vs mock-treated (DMSO) wells.
For another test, the system named is cytochrome c. The format is cell-based, mouse. As to conditions: for cyt c (composite Z-score): normalized score vs mock-treated (DMSO) wells.
In a further test the test system is C2C12 myotubes. To be noted: for Viability (composite Z-score): normalized score vs mock-treated (DMSO) wells.
The subject of test [2] is cellular dehydrogenase activity. As to conditions: for MTT (composite Z-score): normalized score vs mock-treated (DMSO) wells.
[3] abbreviates: composite Z-score vs DMSO, Conc 20 μM.
[4] abbreviates: composite Z-score vs mock-treated (DMSO) wells, Conc 20 μM.
Setting [5] is: normalized composite Z-score vs mock-treated (DMSO) wells, Conc 20 μM.
The mark [6] stands for this setting: 20 μM, composite Z-score vs DMSO.

With `COc1cc(O)ccc1C(C)=O` [isopeonol], the ΔΨm in test [1] (setting [3]) came to 0.271. In the test with reactive oxygen species (setting [3]), the ROS is −0.219. This molecule had a GE-HTS in the test with OXPHOS gene expression (setting [3]) of −0.109. The same molecule showed a nucOX in the test on nuOXPHOS transcripts (setting [3]) of 0.134. In the test on mtOXPHOS transcripts (setting [3]), the mitoOX is given as −0.635. In the test with cytochrome c (setting [3]), this molecule had a cyt c of 0.734. This molecule also gave a Viability with C2C12 myotubes (setting [3]) of −1.180. For the same molecule, in test [2] (setting [3]), the MTT is given as −0.831.

`C[C@H](C[C@@H](O)[C@@H]1OC1(C)C)[C@@H]1CC[C@]2(C)C3=CC[C@H]4C(C)(C)C(=O)CC[C@]4(C)[C@H]3CC[C@@]12C` (stereo in doubt) [niloticin] gave a ΔΨm in test [1] (setting [4]) of 0.461. Also, in the test on reactive oxygen species (setting [4]), the ROS is 0.817. In addition, the GE-HTS in the test on OXPHOS gene expression (setting [4]) is given as 0.543. The same molecule showed a nucOX with nuOXPHOS transcripts (setting [4]) of 0.648. In the test on mtOXPHOS transcripts (setting [4]), this molecule had a mitoOX of 0.151. The same molecule registered a cyt c with cytochrome c (setting [4]) of 0.136. In the test on C2C12 myotubes (setting [4]), this molecule had a Viability of 1.304. The MTT in test [2] (setting [4]) is −0.481.

As for `CCCCC[C@H](CC(=O)O)C(=O)O` [nonic acid], the ΔΨm in test [1] (setting [5]) is given as −0.931. The molecule also gave an ROS with reactive oxygen species (setting [5]) of 1.211. In addition, in the test on OXPHOS gene expression (setting [5]), the GE-HTS is recorded as −0.080. The molecule further showed a nucOX in the test with nuOXPHOS transcripts (setting [5]) of −0.104. Also, the mitoOX in the test with mtOXPHOS transcripts (setting [5]) was determined as 0.061. The same molecule displayed a cyt c with cytochrome c (setting [5]) of −0.133. Besides, the Viability with C2C12 myotubes (setting [5]) is given as −1.043. The MTT in test [2] (setting [5]) is recorded as −1.857.

Regarding `CC1=CCc2c(cc3oc(C)cc(=O)c3c2O)OC1` [ptaeroxylin], the ΔΨm in test [1] (setting [4]) came out at 0.238. Also, the ROS with reactive oxygen species (setting [4]) is reported as 0.259. In the test on OXPHOS gene expression (setting [4]), this molecule registered a GE-HTS of −0.853. Moreover, the nucOX in the test on nuOXPHOS transcripts (setting [4]) is recorded as −0.907. The molecule further gave a mitoOX in the test with mtOXPHOS transcripts (setting [4]) of −0.641. The same molecule displayed a cyt c in the test on cytochrome c (setting [4]) of 0.599. In the test on C2C12 myotubes (setting [4]), this molecule displayed a Viability of −0.025. This molecule came in with an MTT in test [2] (setting [4]) of 0.160.

In turn, `N#CC(=Cc1cccc(O)c1)C(=O)O` [alpha-cyano-3-hydroxycinnamic acid] registered a ΔΨm in test [1] (setting [6]) of −0.165. The same molecule registered an ROS in the test with reactive oxygen species (setting [6]) of 0.452. Besides, the GE-HTS in the test on OXPHOS gene expression (setting [6]) is given as −0.747. In addition, the nucOX in the test on nuOXPHOS transcripts (setting [6]) is listed as −0.903. For the same molecule, in the test with mtOXPHOS transcripts (setting [6]), the mitoOX was −0.285. Further, in the test with cytochrome c (setting [6]), the cyt c came out at 0.349. The molecule also showed a Viability in the test with C2C12 myotubes (setting [6]) of −0.861. For the same molecule, the MTT in test [2] (setting [6]) is reported as −0.323.

Take `COc1ccc(-c2coc3cc(O)cc(O)c3c2=O)cc1` [biochanin A]: in test [1] (Conc 20 μM), the “ΔΨm (composite Z-score)” value is listed as 0.033. For the same molecule, the “ROS (composite Z-score)” value with reactive oxygen species (Conc 20 μM) came out at 0.623. Also, the “GE-HTS (composite Z-score)” value with OXPHOS gene expression (Conc 20 μM) is −0.324. Besides, the “nucOX (composite Z-score)” value in the test with nuOXPHOS transcripts (Conc 20 μM) is given as −0.459. Besides, in the test with mtOXPHOS transcripts (Conc 20 μM), the “mitoOX (composite Z-score)” value is given as −0.042. Besides, the “cyt c (composite Z-score)” value in the test on cytochrome c (Conc 20 μM) was −0.416. In addition, the “Viability (composite Z-score)” value in the test with C2C12 myotubes (Conc 20 μM) turned out to be 0.987. Also, the “MTT (composite Z-score)” value in test [2] (Conc 20 μM) is given as −0.325.

Take `CC(=O)O[C@@H]1CC2C(C)(C)C(=O)C3OC3[C@]2(C)C2CC[C@@]3(C)[C@H](c4ccoc4)OC(=O)C4OC43[C@@]21C` (some centres unmarked) [epoxygedunin]: the “ΔΨm (composite Z-score)” value in test [1] (Conc 20 μM) stood at 0.274. Also, the “ROS (composite Z-score)” value with reactive oxygen species (Conc 20 μM) was 0.409. Also, the “GE-HTS (composite Z-score)” value with OXPHOS gene expression (Conc 20 μM) was −1.146. In addition, the “nucOX (composite Z-score)” value in the test with nuOXPHOS transcripts (Conc 20 μM) is −1.130. The “mitoOX (composite Z-score)” value in the test with mtOXPHOS transcripts (Conc 20 μM) is −1.005. In addition, the “cyt c (composite Z-score)” value in the test with cytochrome c (Conc 20 μM) stood at 0.248. Moreover, in the test with C2C12 myotubes (Conc 20 μM), the “Viability (composite Z-score)” value is on record as 0.052. Moreover, the “MTT (composite Z-score)” value in test [2] (Conc 20 μM) is listed as −1.657.

In the case of `COc1ccc2c(c1)OCC(Cc1ccc(OC)c(OC)c1)C2=O` (centres unmarked) [deoxysappanone B trimethyl ether], the “ΔΨm (composite Z-score)” value in test [1] (Conc 20 μM) is listed as −0.194. Moreover, the “ROS (composite Z-score)” value in the test with reactive oxygen species (Conc 20 μM) turned out to be 1.064. Further, the “GE-HTS (composite Z-score)” value with OXPHOS gene expression (Conc 20 μM) amounted to 0.993. The “nucOX (composite Z-score)” value in the test with nuOXPHOS transcripts (Conc 20 μM) amounted to 1.050. Besides, in the test on mtOXPHOS transcripts (Conc 20 μM), the “mitoOX (composite Z-score)” value came out at 0.613. Moreover, the “cyt c (composite Z-score)” value in the test with cytochrome c (Conc 20 μM) amounted to 0.336. Moreover, the “Viability (composite Z-score)” value in the test on C2C12 myotubes (Conc 20 μM) is listed as −0.068. Also, the “MTT (composite Z-score)” value in test [2] (Conc 20 μM) is −1.507.

The molecule `Cc1cc(O)cc(O)c1C(=O)O` [orsellinic acid] returned a ΔΨm in test [1] (setting [4]) of −0.846. Also, the ROS in the test on reactive oxygen species (setting [4]) is listed as 1.236. In the test with OXPHOS gene expression (setting [4]), this molecule registered a GE-HTS of −0.348. Further, the nucOX with nuOXPHOS transcripts (setting [4]) is −0.350. In the test with mtOXPHOS transcripts (setting [4]), this molecule had a mitoOX of −0.333. The molecule also had a cyt c in the test with cytochrome c (setting [4]) of −0.015. In addition, the Viability in the test with C2C12 myotubes (setting [4]) is −0.320. Moreover, the MTT in test [2] (setting [4]) is on record as −1.311.

Take `CCC(C)C(=O)O[C@@H]1C[C@@]2(C)[C@H](c3ccoc3)OC(=O)CC23OC2(C)O[C@]14[C@]1(C)[C@@H](CC(=O)OC)C5(C)CC1(O)[C@](O)(C5OC(=O)C1(C)OC1C)[C@@H](OC(C)=O)[C@]34O2` (some centres unmarked) [utilin]: in test [1] (setting [4]), the ΔΨm is listed as −0.122. This molecule came in with an ROS in the test with reactive oxygen species (setting [4]) of 0.482. For the same molecule, the GE-HTS with OXPHOS gene expression (setting [4]) was −0.939. Also, in the test on nuOXPHOS transcripts (setting [4]), the nucOX is recorded as −0.861. This molecule showed a mitoOX in the test with mtOXPHOS transcripts (setting [4]) of −0.975. The cyt c with cytochrome c (setting [4]) is given as −0.038. In addition, in the test with C2C12 myotubes (setting [4]), the Viability is given as 1.131. The same molecule displayed an MTT in test [2] (setting [4]) of −1.571.
